Each structure is given as a SMILES string. “And” between values parts separate entries of the source, which are not always exact repeats. Equal entries are not always repeated.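 Values below derive from 48-hour exposures of cells grown in 96-well plates, with endpoints linearly interpolated between the two concentrations bracketing the appropriate inhibition level. GI50 = concentration required for 50% inhibition of growth. TGI: concentration producing complete growth inhibition.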

From PubChem BioAssay (NCI) come the findings set out here.

Some test systems named below: NCI-H226 lung; SNB-19 CNS; CAKI-1 renal; SNB-75 CNS; TK-10 renal; SF-268 CNS; SF-295 CNS; K-562 leukemia.
Experiment in all cases: DTP human tumour cell line panel, 48 h

One may read the GI50 as the concentration that inhibits growth by half. As usually defined, the TGI is the concentration at which net growth stops. In the case of `COc1ccc(C2=NN(C=O)C(c3ccc(OS(=O)(=O)c4ccc(C)cc4)c(OC)c3)C2)cc1` (stereo unspecified), the GI50 was 8.81 µM in the assay with NCI-H226 lung; 11.7 µM in the assay on SNB-19 CNS; 5.35 µM with CAKI-1 renal; 3.33 µM with SNB-75 CNS; more than 100 µM with TK-10 renal; 17.2 µM in the assay with SF-268 CNS. The GI50 is 3.58 µM in the assay on SF-295 CNS and 2.45 µM in the assay with K-562 leukemia. The TGI was more than 100 µM in the assay with NCI-H226 lung; more than 100 µM with SNB-19 CNS; more than 100 µM with CAKI-1 renal; 25.1 µM in the assay with SNB-75 CNS; more than 100 µM in the assay on TK-10 renal; more than 100 µM with SF-268 CNS. For the same compound, the figures for the TGI in the assay with SF-295 CNS and with K-562 leukemia were 25.2 µM and more than 100 µM, respectively.
Regarding `CCC(CC)c1cc(N[C@H]2CC[C@H](N)C2)n2nccc2n1`, the GI50 in the assay on NCI-H226 lung is 0.969 µM; with SNB-19 CNS it was 1.06 µM; with CAKI-1 renal, 0.423 µM; in the assay on SNB-75 CNS, 1.28 µM; in the assay with TK-10 renal it was 3.58 µM; in the assay on SF-268 CNS, 2.44 µM. The values for the GI50 in the assay on SF-295 CNS and with K-562 leukemia were 1.83 µM and 0.642 µM, respectively. Besides, the TGI in the assay with NCI-H226 lung is 48.7 µM; in the assay on SNB-19 CNS it was more than 100 µM; with CAKI-1 renal, more than 100 µM; in the assay with SNB-75 CNS, 3.32 µM; in the assay on TK-10 renal it was more than 100 µM; in the assay with SF-268 CNS it was 13.9 µM. Also, the TGI in the assay on SF-295 CNS and in the assay with K-562 leukemia was more than 100 µM throughout.
Regarding `CC(=O)N(C)c1cc(NCc2ccccc2)ccc1OCc1ccccc1`, the TGI worked out at 35.9 µM with NCI-H226 lung; 35.8 µM in the assay with SNB-19 CNS; 38.6 µM in the assay on CAKI-1 renal; 41.5 µM with SNB-75 CNS; 33.5 µM in the assay with TK-10 renal; 30.4 µM in the assay on SF-268 CNS. Further, the TGI in the assay with SF-295 CNS came to 29.6 µM; in the assay with K-562 leukemia it was 63.5 µM.
Consider `O=c1c2cccc(F)c2sc2c(NCCCNCCO)nc3ccccc3c12`, for which the GI50 is 1.7 µM with NCI-H226 lung; 1.65 µM in the assay with SNB-19 CNS; 1.42 µM with CAKI-1 renal; 1.56 µM in the assay with SNB-75 CNS; 1.96 µM in the assay on TK-10 renal; 1.55 µM in the assay on SF-268 CNS. The values for the GI50 in the assay on SF-295 CNS and in the assay on K-562 leukemia were 1.76 µM and 1.75 µM, respectively. In addition, the TGI in the assay with NCI-H226 lung came out at 3.35 µM; in the assay on SNB-19 CNS, 3.17 µM; in the assay on CAKI-1 renal, 2.73 µM; in the assay on SNB-75 CNS, 2.99 µM; in the assay on TK-10 renal it was 3.57 µM; in the assay with SF-268 CNS, 3.12 µM. Moreover, the total growth inhibition concentration (TGI) in the assay on SF-295 CNS amounted to 3.19 µM; in the assay with K-562 leukemia it was 4.64 µM.
Regarding `CC(C)(C)[Si](C)(C)OC1[C@@H](O[Si](C)(C)C(C)(C)C)[C@@H](CNC(=O)NC(=O)NC(=O)CCl)O[C@H]1n1cnc2c(NC(=O)Nc3ccccc3)ncnc21` (stereo partly specified), the GI50 was 8.67 µM with NCI-H226 lung; 15.7 µM in the assay with SNB-19 CNS; 2.2 µM in the assay with CAKI-1 renal; 5.84 µM with SNB-75 CNS; 2.42 µM with TK-10 renal; 4.51 µM with SF-268 CNS. Further, the GI50 in the assay with SF-295 CNS was 4.91 µM; in the assay on K-562 leukemia, 2.56 µM. The TGI in the assay on NCI-H226 lung was determined as 15.9 µM; in the assay on SNB-19 CNS, 48.6 µM; in the assay with CAKI-1 renal it was 9.42 µM; in the assay on SNB-75 CNS it was 13.9 µM; with TK-10 renal, 7.81 µM; with SF-268 CNS, 14 µM. Also, the TGI with SF-295 CNS was determined as 15 µM; in the assay on K-562 leukemia, 7.51 µM.
As to `COc1ccc(CN2C(=O)/C(=C\C(=O)c3ccc(OCCN4CCCC4)cc3)c3ccccc32)cc1`, the GI50 was 20.8 µM with NCI-H226 lung; 3.83 µM in the assay with SNB-19 CNS; 11.8 µM in the assay on CAKI-1 renal; 14.2 µM in the assay with SNB-75 CNS; 1.74 µM in the assay on TK-10 renal; 13.2 µM in the assay on SF-268 CNS. The GI50 is 14.8 µM in the assay with SF-295 CNS and 2.05 µM with K-562 leukemia. Besides, the TGI came to 52.9 µM in the assay on NCI-H226 lung; 15.1 µM in the assay with SNB-19 CNS; 27 µM in the assay on CAKI-1 renal; 30.9 µM in the assay on SNB-75 CNS; 3.33 µM in the assay with TK-10 renal; 42.7 µM in the assay with SF-268 CNS. For the same compound, the TGI amounted to 36.8 µM with SF-295 CNS and 6.03 µM in the assay on K-562 leukemia.
As to `O=C(/C=C\c1cc(Br)ccc1O)/C=C/c1cc(Br)ccc1O`, the GI50 in the assay on NCI-H226 lung was 2.63 µM; with SNB-19 CNS it was 1.03 µM; in the assay with CAKI-1 renal it was 0.938 µM; in the assay on SNB-75 CNS it was 1.34 µM; in the assay on TK-10 renal, 2.05 µM; with SF-268 CNS it was 1.33 µM. In addition, the GI50 is 0.538 µM in the assay on SF-295 CNS and 0.445 µM in the assay with K-562 leukemia. In addition, the concentration for total growth inhibition (TGI) was 8.69 µM with NCI-H226 lung; 2.55 µM in the assay on SNB-19 CNS; 3.33 µM in the assay on CAKI-1 renal; 2.8 µM in the assay on SNB-75 CNS; 4.03 µM in the assay on TK-10 renal; 3.1 µM in the assay on SF-268 CNS. In addition, the TGI in the assay with SF-295 CNS worked out at 1.93 µM; in the assay on K-562 leukemia, 8.12 µM.
Take `CC(C)n1nc(C#Cc2cccc(O)c2)c2c(N)ncnc21`: the GI50 in the assay on NCI-H226 lung is 3.81 µM and 1.37 µM; in the assay with SNB-19 CNS it was 3.02 µM and 2.16 µM; with CAKI-1 renal, 1.66 µM and 1.59 µM; in the assay on SNB-75 CNS, 0.161 µM and 0.442 µM; in the assay with TK-10 renal, 2.57 µM and 2.03 µM; in the assay with SF-268 CNS, 1.37 µM and 1.09 µM. Further, the GI50 in the assay with SF-295 CNS is 3.16 µM and 1.17 µM; in the assay with K-562 leukemia, 0.0636 µM and 0.0283 µM. The TGI is 21.1 µM and 6.02 µM with NCI-H226 lung; 21.4 µM and 14.4 µM with SNB-19 CNS; 6.06 µM and 6.87 µM with CAKI-1 renal; 1.12 µM and 2.09 µM with SNB-75 CNS; 10.1 µM and 5.05 µM in the assay with TK-10 renal; 6.71 µM and 6.05 µM in the assay with SF-268 CNS. Also, the TGI is 12.2 µM and 3.58 µM in the assay on SF-295 CNS; 50 µM and > 100 µM in the assay with K-562 leukemia.
For `CCSc1nc(NC(C)c2ccccc2)c2cnn(CO)c2n1` (stereo unspecified), the GI50 with NCI-H226 lung was 47 µM; in the assay on SNB-19 CNS, more than 100 µM; in the assay with CAKI-1 renal, 0.135 µM; in the assay on SNB-75 CNS it was more than 100 µM; with TK-10 renal, 47.7 µM; with SF-268 CNS, more than 100 µM. For the same compound, the GI50 with SF-295 CNS is 35.2 µM; in the assay with K-562 leukemia, 29.2 µM. For the same compound, the total growth inhibition concentration (TGI) in the assay on NCI-H226 lung is more than 100 µM; with SNB-19 CNS, more than 100 µM; with CAKI-1 renal, 56.1 µM; in the assay on SNB-75 CNS, more than 100 µM; in the assay on TK-10 renal it was more than 100 µM; with SF-268 CNS, more than 100 µM. Further, the TGI in the assay with SF-295 CNS and in the assay on K-562 leukemia was more than 100 µM in each case.
